Assay [1] addresses γ-secretase (Homo sapiens, UniProt P49768). In words: Screening for γ-secretase-modulating activity, Aβ42 in SKNBE2 cells carrying APP 695 wild type. The class given is cell-based. The settings on record: read-out: WTAPP SKNBE2 Aβ 42% Inhibition at 3 μM. The protocol:
Screening of the Compounds of the Invention for γ-Secretase-Modulating Activity
Cells were grown to near confluency.

In assay [2] the test system is Aβ42. In words: In vivo Aβ42 lowering, mouse. The conditions noted are these: oral dose 30 mpk at 4 hr time point, read-out: Mouse Efficacy % Lowering Aβ 42. The text has this:
(§1) To determine whether acute administration of an Aβ42 lowering agent would reduce Aβ42 levels in vivo, non-transgenic rodents, e.g. mice or rats can be used. Alternatively, two to three month old Tg2576 mice expressing APP695 containing the “Swedish” variant can be used or a transgenic mouse model developed by Dr. Fred Van Leuven (K.U.Leuven, Belgium) and co-workers, with neuron-specific expression of a clinical mutant of the human amyloid precursor protein [V717I] (Moechars et al., 1999 J. Biol. Chem. 274, 6483). […] Animals of this age have high levels of Aβ in the brain but no detectable Aβ deposition. Mice treated with the Aβ42 lowering agent will be examined and compared to those untreated or treated with vehicle and brain levels of soluble Aβ42 and total Aβ would be quantitated by standard techniques, for example, using ELISA. Treatment periods may vary from hours to days and will be adjusted based on the results of the Aβ42 lowering once a time course of onset of effect can be established.
(§2) A typical protocol for measuring Aβ42 lowering in vivo is shown but it is only one of many variations that could be used to optimize the levels of detectable Aβ. For example, aliquots of compounds can be dissolved in DMSO (volume equal to 1/10th of the final formulation volume), vortexed and further diluted (1:10) with a 10% (w/v) hydroxypropyl β cyclodextrin (HBC, Aldrich, Ref N° 33,260-7) solution in PBS, where after they are sonicated for 20 seconds.
(§3) Aβ42 lowering agents may be administered as a single oral dose given three to four hours before sacrifice and analysis or alternatively could be given over a course of days and the animals sacrificed three to four hours after the final dose is given.
(§4) Blood is collected at sacrifice. The blood collection is performed via a heart puncture during anesthesia with a mixture of Ketalar (Ketamin), Rompun (Xylazin 2%) and Atropin (2:1:1) and collected in EDTA treated collection tubes. Blood is centrifuged at 4000 g for 5 minutes at 4° C. and the plasma recovered for analysis.
(§5) The mice are anaesthetized with a mixture of Ketalar (Ketamin), Rompun (Xylazin 2%) and Atropin (2:1:1) and flushed trans-cardially with physiological serum at 4° C.
(§6) The brain is removed from the cranium and hindbrain and forebrain are separated with a cut in the coronal/frontal plane. The cerebellum is removed. The forebrain is divided evenly into left and right hemisphere by using a midline sagital cut.
(§7) One hemisphere is immediately immersed in liquid nitrogen and stored at −70° C. until homogenization for biochemical assays.
(§8) Brains are homogenized using a Potter, a glass tube (detergent free, 2 cm^3) and a mechanical homogenizer (650 rpm). A volume of 6.5×½ brain weight of freshly prepared 20 mM Tris/HCl buffer (pH 8.5) with Proteinase Inhibitors (1 tablet per 50 ml Tris/HCl buffer, Complete™, Roche, Mannheim, Germany) is used as homogenization buffer.
(§9) Samples are transferred from −70° C. into a sample holder with liquid nitrogen and each individual sample is pre-warmed by incubation on the bench for a few seconds prior to homogenization. The homogenates are collected in Beckman centrifuge tubes TLX and collected on ice prior to centrifugation. Between two samples, the Potter and the glass tube are rinsed carefully with distilled water without detergents and dried with absorption paper.
(§10) Samples are centrifuged in a pre-cooled ultracentrifuge (Beckman, Mannheim, Germany) for 1 hour and 20 minutes at 48000 rpm (135.000×g) at 4° C. The supernatant (soluble fraction containing secreted APP and amyloid peptides) is separated from the pellet (membrane fraction containing membrane-bound APP-fragments and plaque-associated amyloid peptides in case of aged mice).
(§11) Small reversed phase columns (C18-Sep-Pack Vac 3 cc cartridges, Waters, Mass., MA) are mounted on a vacuum system and washed with 80% acetonitrile in 0.1% Trifluoroacetic acid (A-TFA) followed with 0.1% TFA twice. […]

The test system of assay [3] is Aβ42. Description: In vivo Aβ42 lowering, rat. The conditions noted are these: oral dose 30 mpk at 4 hr time point.
Description: as §1, §2, §3, §4, §5, §6, §7, §8, §9, §10, §11

The structures appear in SMILES notation.

In the case of `CC(C)CC(C(=O)O)c1cc(-c2ccc(C(F)(F)F)cc2)cc(-c2ccc(F)cc2F)c1` (centres unmarked) [Compound 2, 2-(2,4-Difluoro-4″-trifluoromethyl-[1,1′;3′,1″]terphenyl-5′-yl)-4-methyl-pentanoic acid], the inhibition at 3 µM in assay [1] was 53%.

For the compound `CC(C)CC(C(=O)O)c1cc(-c2ccc(C(C)C)cc2)cc(-c2ccc(C(F)(F)F)cc2)c1` (centres unmarked) [Compound 4, 2-(4-Isopropyl-4″-trifluoromethyl-[1,1′;3′,1″]terphenyl-5′-yl)-4-methyl-pentanoic acid], the inhibition in vivo at 30 mg/kg in assay [2] was found to be 30%.

On to `CC(C)CC(C(=O)O)c1cc(-c2ccc(C(F)(F)F)cc2)cc(-c2ccc(C(F)(F)F)cc2)c1` (centres unmarked) [Compound 5, 2-(4,4″-Bis-trifluoromethyl-[1,1′;3′,1″]terphenyl-5′-yl)-4-methyl-pentanoic acid], for which the inhibition in vivo at 30 mg/kg in assay [2] turned out to be 48%. In addition, the “Rat Efficacy % Lowering Aβ 42” value in assay [3] was 29%.

Regarding `CC(C)CC(C(=O)O)c1cc(-c2ccc(C(F)(F)F)cc2)cc(-c2ccccc2C(F)(F)F)c1` (centres unmarked) [Compound 6, 2-(2,4″-Bis-trifluoromethyl-[1,1′;3′,1″]terphenyl-5′-yl)-4-methyl-pentanoic acid], the inhibition at 3 µM in assay [1] stood at 65%.

As for `CC(C)CC(C(=O)O)c1cc(-c2ccc(C(F)(F)F)cc2)cc(-c2ccccc2F)c1` (centres unmarked) [Compound 8, 2-(2-Fluoro-4″-trifluoromethyl-[1,1′;3′,1″]terphenyl-5′-yl)-4-methyl-pentanoic acid], the inhibition at 3 µM in assay [1] is -1%.

For `Cc1ccc(-c2cc(-c3ccc(C(F)(F)F)cc3)cc(C(CC(C)C)C(=O)O)c2)cc1` (centres unmarked) [Compound 11, 4-Methyl-2-(4-methyl-4″-trifluoromethyl-[1,1′;3′,1″]terphenyl-5′-yl)-pentanoic acid], in assay [1], the inhibition at 3 µM was determined as 68%.

`CC(C)CC(C(=O)O)c1cc(-c2ccc(C(F)(F)F)cc2)cc(-c2cccc(C(F)(F)F)c2)c1` (centres unmarked) [Compound 12, 2-(3,4″-Bis-trifluoromethyl-[1,1′;3′,1″]terphenyl-5′-yl)-4-methyl-pentanoic acid]: the inhibition at 3 µM in assay [1] was found to be 86%.

Consider `CC(C)CC(C(=O)O)c1cc(-c2ccc(C#N)cc2)cc(-c2ccc(C(F)(F)F)cc2)c1` (centres unmarked) [Compound 16, 2-(4-Cyano-4″-trifluoromethyl-[1,1′;3′,1″]terphenyl-5′-yl)-4-methyl-pentanoic acid], for which, in assay [2], the inhibition in vivo at 30 mg/kg was determined as 10%.

Turning to `CC(C)CC(C(=O)O)c1cc(-c2ccc(C(F)(F)F)cc2)cc(-c2ccc(S(C)(=O)=O)cc2)c1` (centres unmarked) [Compound 21, 2-(4-Methanesulfonyl-4″-trifluoromethyl-[1,1′;3′,1″]terphenyl-5′-yl)-4-methyl-pentanoic acid], in assay [1], the inhibition at 3 µM is 46%.

Turning to `CC(C)CC(C(=O)O)c1cc(-c2ccc(C(F)(F)F)cc2)cc(-c2cc(Cl)ccc2Cl)c1` (centres unmarked) [Compound 23, 2-(2,5-Dichloro-4″-trifluoromethyl-[1,1′;3′,1″]terphenyl-5′-yl)-4-methyl-pentanoic acid], the inhibition at 3 µM in assay [1] came out at 84%.

For the compound `COc1ccc(-c2cc(-c3ccc(C(F)(F)F)cc3)cc(C(CC(C)C)C(=O)O)c2)cc1` (centres unmarked) [Compound 24, 2-(4-Methoxy-4″-trifluoromethyl-[1,1′;3′,1″]terphenyl-5′-yl)-4-methyl-pentanoic acid], the inhibition at 3 µM in assay [1] came out at 53%.

As for `C=C(C)CC(C(=O)O)c1cc(-c2ccc(C(F)(F)F)cc2)cc(-c2ccc(C(F)(F)F)cc2)c1` (centres unmarked) [Compound 25, 2-(4,4″-Bis-trifluoromethyl-[1,1′;3′,1″]terphenyl-5′-yl)-4-methyl-pent-4-enoic acid], in assay [1], the inhibition at 3 µM was found to be 82%.

`CC(C)CC(C(=O)O)c1cc(-c2cc(F)cc(F)c2)cc(-c2cc(F)cc(C(F)(F)F)c2)c1` (centres unmarked) [Compound 32, 4-Methyl-2-(3,5,3″-trifluoro-5″-trifluoromethyl-[1,1′;3′,1″]terphenyl-5′-yl)-pentanoic acid]: the inhibition at 3 µM in assay [1] is 80%.

Take `CC(C)CC(C(=O)O)c1cc(-c2cccc(C#N)c2)cc(-c2cc(C(F)(F)F)cc(C(F)(F)F)c2)c1` (centres unmarked) [Compound 34, 2-(3-Cyano-3″,5″-bis-trifluoromethyl-[1,1′;3′,1″]terphenyl-5′-yl)-4-methyl pentanoic acid]: the inhibition at 3 µM in assay [1] amounted to 73%.

For the compound `CC(C)CC(C(=O)O)c1cc(-c2ccc(C(F)(F)F)cc2)cc(-c2cc(F)cc(C#N)c2)c1` (centres unmarked) [Compound 36, 2-(5-Cyano-3-fluoro-4″-trifluoromethyl-[1,1′;3′,1″]terphenyl-5′-yl)-4-methyl-pentanoic acid], in assay [1], the inhibition at 3 µM came out at 0%.

`CC(C)CC(C(=O)O)c1cc(-c2ccc(C#N)cc2)cc(-c2cc(C(F)(F)F)cc(C(F)(F)F)c2)c1` (centres unmarked) [Compound 37, 2-(4-Cyano-3″,5″-bis-trifluoromethyl-[1,1′;3′,1″]terphenyl-5′-yl)-4-methyl pentanoic acid]: in assay [1], the inhibition at 3 µM came to 84%.

On to `CC(C)CC(C(=O)O)c1cc(-c2cc(F)cc(F)c2)cc(-c2cc(F)cc(F)c2)c1` (centres unmarked) [Compound 38, 4-Methyl-2-(3,5,3″,5″-tetrafluoro-[1,1′;3′,1″]terphenyl-5′-yl)-pentanoic acid], for which the inhibition at 3 µM in assay [1] turned out to be 53%.

`CC(C)C[C@H](C(=O)O)c1cc(-c2ccc(C(F)(F)F)cc2)cc(-c2cc(F)cc(F)c2)c1` [Compound 41, (S)-2-(3,5-Difluoro-4″-trifluoromethyl-[1,1′;3′,1″]terphenyl-5′-yl)-4-methyl-pentanoic acid]: in assay [2], the inhibition in vivo at 30 mg/kg came out at 58%.

For `CC(C)C[C@@H](C(=O)O)c1cc(-c2ccc(C(F)(F)F)cc2)cc(-c2cc(F)cc(F)c2)c1` [Compound 42, (R)-2-(3,5-Difluoro-4″-trifluoromethyl-[1,1′;3′,1″]terphenyl-5′-yl)-4-methyl-pentanoic acid], the inhibition in vivo at 30 mg/kg in assay [2] worked out at 48%.

For `CC(C)C[C@H](C(=O)O)c1cc(-c2ccc(C(F)(F)F)cc2)cc(-c2cc(C(F)(F)F)cc(C(F)(F)F)c2)c1` [Compound 43, (S)-4-Methyl-2-(3,5,4″-tris-trifluoromethyl-[1,1′;3′,1″]terphenyl-5′-yl)-pentanoic acid], the inhibition in vivo at 30 mg/kg in assay [2] was 40%.

As for `CC(C)C[C@@H](C(=O)O)c1cc(-c2ccc(C(F)(F)F)cc2)cc(-c2ccc(Cl)c(F)c2)c1` [Compound 47, (R)-2-(4-Chloro-3-fluoro-4″-trifluoromethyl-[1,1′;3′,1″]terphenyl-5′-yl)-4-methyl-pentanoic acid], the inhibition in vivo at 30 mg/kg in assay [2] is 45%.

For `CC(=O)c1ccc(-c2cc(-c3ccc(C(F)(F)F)cc3)cc(C(CC(C)C)C(=O)O)c2)cc1` (centres unmarked) [Compound 48, 2-(4-Acetyl-4″-trifluoromethyl-[1,1′;3′,1″]terphenyl-5′-yl)-4-methyl-pentanoic acid], the inhibition at 3 µM in assay [1] came out at 18%.

In the case of `CC(C)CC(C(=O)O)c1cc(-c2ccc(C(F)(F)F)cc2)cc(-c2cccc(N(C)C)c2)c1` (centres unmarked) [Compound 49, 2-(3-Dimethylamino-4″-trifluoromethyl-[1,1′;3′,1″]terphenyl-5′-yl)-4-methyl-pentanoic acid], the inhibition at 3 µM in assay [1] is -17%.

As for `CC(C)C[C@@H](C(=O)O)c1cc(-c2ccc(OC(F)(F)F)cc2)cc(-c2ccc(C(F)(F)F)cc2)c1` [Compound 51, (R)-4-Methyl-2-(4-trifluoromethoxy-4″-trifluoromethyl-[1,1′;3′,1″]terphenyl-5′-yl)-pentanoic acid], in assay [2], the inhibition in vivo at 30 mg/kg was determined as 50%.

On to `CC(C)C[C@H](C(=O)O)c1cc(-c2ccc(OC(F)(F)F)cc2)cc(-c2ccc(C(F)(F)F)cc2)c1` [Compound 52, (S)-4-Methyl-2-(4-trifluoromethoxy-4″-trifluoromethyl-[1,1′;3′,1″]terphenyl-5′-yl)-pentanoic acid], for which, in assay [2], the inhibition in vivo at 30 mg/kg worked out at 48%.
